Reference: patent US9422240B2, “Partially saturated nitrogen-containing heterocyclic compound” (TAISHO PHARMACEUTICAL CO., LTD, priority 2012, dated 2016)
pIC50: −log10 of the molar value.

target: human PHD2 (Homo sapiens (Human), UniProt Q9GZT9); assay: Test 2: human PHD2 inhibitory activity, fluorescence polarization assay of HIF-1α peptide proline hydroxylation; format: biochemical; conditions: human PHD2, fluorescence polarization assay, 20-min incubation at 30° C.
Experimental: (1) Expression and Preparation of Human PHD2
A registered sequence of human PHD2 (NM_022051) was introduced into pcDNA3.1/Hygro(+) vector (Invitrogen), and the sequence was verified. […] The suspension of disrupted cells was centrifuged at 4° C. and 100,000×g for 30 minutes and the supernatant was recovered as a cell lysate.
(2) Measurement of Human PHD2 Inhibitory Activity
The activity of human PHD2 enzyme was measured with a substrate which is a 19-residue partial peptide based on the sequence of HIF-1α; specifically, the hydroxylation of a proline residue in the peptide was measured by FP (Fluorescence Polarization).
A test compound and the substrate solution were preliminarily added onto 384-well plates and reaction was initiated by adding a human PHD2 enzyme solution (40 ng/well). After 20-min incubation at 30° C., an EDTA-containing quench solution was added and the amount of the proline residues hydroxylated via binding to an added HIF—OH antibody solution was quantified by fluorescence polarization.
The fluorescence polarization of each well was measured and the human PHD2 inhibitory activity of each test compound was calculated on the basis of the values for the test compound-free group.

human PHD2, sequence (Q9GZT9 whole entry): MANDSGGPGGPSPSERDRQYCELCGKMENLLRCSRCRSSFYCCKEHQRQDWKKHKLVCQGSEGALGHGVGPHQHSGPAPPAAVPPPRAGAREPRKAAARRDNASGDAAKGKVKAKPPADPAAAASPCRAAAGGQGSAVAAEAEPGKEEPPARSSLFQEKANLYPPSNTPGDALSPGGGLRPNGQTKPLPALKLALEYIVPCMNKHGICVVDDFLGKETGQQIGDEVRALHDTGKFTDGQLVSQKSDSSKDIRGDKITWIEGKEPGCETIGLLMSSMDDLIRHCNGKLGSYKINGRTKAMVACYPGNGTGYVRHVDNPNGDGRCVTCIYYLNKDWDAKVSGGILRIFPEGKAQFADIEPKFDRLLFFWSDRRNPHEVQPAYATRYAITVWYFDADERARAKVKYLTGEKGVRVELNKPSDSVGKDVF

pIC50 | Structure (SMILES)
6.39 | O=C(O)CNC(=O)C1=C(O)CCN(Cc2ccc(Oc3ncccn3)cc2)C1=O [Ex. 1-226]
7.04 | Cc1ccc(Oc2ncc(CN3CCC(O)=C(C(=O)NCC(=O)O)C3=O)cc2C)cn1 [Ex. 1-333]
7.21 | COc1cccc(Oc2ccc(CN3CCC(O)=C(C(=O)NCC(=O)O)C3=O)cn2)c1 [Ex. 1-354]
7.22 | O=C(O)CNC(=O)C1=C(O)CCN(Cc2ccc(Oc3ccc(C(F)(F)F)cc3)cn2)C1=O [Ex. 1-356]
7.25 | O=C(O)CNC(=O)C1=C(O)CCN(Cc2ccc(Oc3ccc(C(F)(F)F)nc3)cc2)C1=O [Ex. 1-365]
7.72 | Cc1ccc(Oc2ccc(CN3CCC(O)=C(C(=O)NCC(=O)O)C3=O)cn2)cc1Cl [Ex. 1-366]
7.59 | Cc1ccc(Oc2ccc(CN3CCC(O)=C(C(=O)NCC(=O)O)C3=O)cn2)cc1F [Ex. 1-367]
7.39 | Cc1cc(Oc2ccc(CN3CCC(O)=C(C(=O)NCC(=O)O)C3=O)cn2)ccc1F [Ex. 1-368]
7.66 | CCc1ccc(Oc2ccc(CN3CCC(O)=C(C(=O)NCC(=O)O)C3=O)cn2)cc1 [Ex. 1-376]
7.82 | CCCc1ccc(Oc2ccc(CN3CCC(O)=C(C(=O)NCC(=O)O)C3=O)cn2)cc1 [Ex. 1-377]
7.85 | CC(C)c1ccc(Oc2ccc(CN3CCC(O)=C(C(=O)NCC(=O)O)C3=O)cn2)cc1 [Ex. 1-378]

same assay, conditions: test compound's concentration 1 μM; Test 2, fluorescence polarization assay; read-out: Percent inhibition (% at 1 μM)

inhibition at 1 µM | Structure (SMILES)
84% | O=C(O)CNC(=O)C1=C(O)CCN(Cc2ccc(Oc3ncccn3)cc2)C1=O [Ex. 1-226]
94% | O=C(O)CNC(=O)C1=C(O)CCN(CC2CCN(C(=O)OCc3ccccc3)CC2)C1=O [Ex. 1-248]
41% | O=C(O)CNC(=O)C1=C(O)CCNC1=O [Ex. 1-308]
58% | CN1CCC(O)=C(C(=O)NCC(=O)O)C1=O [Ex. 1-309]
59% | O=C(O)CNC(=O)C1=C(O)CC2(CCCCC2)CN(Cc2ccccc2)C1=O [Ex. 1-310]
83% | O=C(O)CNC(=O)C1=C(O)CC2(CCNCC2)N(Cc2ccc(-c3ccccc3)cc2)C1=O [Ex. 1-311]
86% | O=C(O)CNC(=O)C1=C(O)CC2(CCCCC2)CN(Cc2ccc(-c3ccccc3)cc2)C1=O [Ex. 1-312]
96% | O=C(O)CNC(=O)C1=C(O)CC2(CNC2)N(Cc2ccc(-c3ccccc3)cc2)C1=O [Ex. 1-313]
86% | O=C(O)CNC(=O)C1=C(O)CC2(CNC(=O)C2)N(Cc2ccc(-c3ccccc3)cc2)C1=O (centres unmarked) [Ex. 1-314]
81% | CN1CC2(CC1=O)CC(O)=C(C(=O)NCC(=O)O)C(=O)N2Cc1ccc(-c2ccccc2)cc1 (centres unmarked) [Ex. 1-315]
87% | O=C(O)CNC(=O)C1=C(O)CCN(Cc2ccc(-c3cncnc3)cc2)C1=O [Ex. 1-316]
85% | CCCCCCCCCN1CCC(O)=C(C(=O)NCC(=O)O)C1=O [Ex. 1-317]
96% | O=C(O)CNC(=O)C1=C(O)CN(Cc2ccc(-c3ccccc3)cc2)C1=O [Ex. 1-318]
42% | CC(C)CN1CCC(O)=C(C(=O)NCC(=O)O)C1=O [Ex. 1-319]
57% | O=C(O)CNC(=O)C1=C(O)CCN(Cc2cncnc2)C1=O [Ex. 1-320]
84% | O=C(O)CNC(=O)C1=C(O)CCN(Cc2ccc(C(=O)N3CCCCC3)cc2)C1=O [Ex. 1-321]
77% | CCCNC(=O)c1ccc(CN2CCC(O)=C(C(=O)NCC(=O)O)C2=O)cc1 [Ex. 1-322]
87% | CC1C(O)=C(C(=O)NCC(=O)O)C(=O)N1Cc1ccc(-c2ccccc2)cc1 (centres unmarked) [Ex. 1-323]
91% | CC1(C)C(O)=C(C(=O)NCC(=O)O)C(=O)N1Cc1ccc(-c2ccccc2)cc1 [Ex. 1-324]
90% | O=C(O)CNC(=O)C1=C(O)C2(CCCCC2)N(Cc2ccc(-c3ccccc3)cc2)C1=O [Ex. 1-325]
71% | O=C(O)CNC(=O)C1=C(O)C(c2ccccc2)N(Cc2ccc(-c3ccccc3)cc2)C1=O (centres unmarked) [Ex. 1-326]
81% | CS(=O)(=O)c1ccc(CN2CCC(O)=C(C(=O)NCC(=O)O)C2=O)cc1 [Ex. 1-327]
63% | CS(=O)(=O)c1ccc(CN2C(=O)C(C(=O)NCC(=O)O)=C(O)CC23CCCCC3)cc1 [Ex. 1-328]
87% | O=C(O)CNC(=O)C1=C(O)C2(CCCCC2)N(Cc2ccc(-c3ccc(C(F)(F)F)cc3)cc2)C1=O [Ex. 1-329]

inhibition at 1 µM | Structure (SMILES)
69% | CC(C)(C)c1ccc(-c2ccc(CN3C(=O)C(C(=O)NCC(=O)O)=C(O)C34CCCCC4)cc2)cc1 [Ex. 1-330]
75% | CS(=O)(=O)c1ccc(CN2CC3(CCCCC3)C(O)=C(C(=O)NCC(=O)O)C2=O)cc1 [Ex. 1-331]
73% | O=C(O)CNC(=O)C1=C(O)C2(CCCCC2)N(CC2CCC(c3ccccc3)CC2)C1=O (centres unmarked) [Ex. 1-332]
91% | Cc1ccc(Oc2ncc(CN3CCC(O)=C(C(=O)NCC(=O)O)C3=O)cc2C)cn1 [Ex. 1-333]
96% | O=C(O)CNC(=O)C1=C(O)C(F)(F)CN(Cc2ccc(C(F)(F)F)cc2)C1=O [Ex. 1-334]
73% | O=C(O)CNC(=O)C1=C(O)CCN(Cc2ccc(C(=O)O)cc2)C1=O [Ex. 1-335]
82% | O=C(O)CNC(=O)C1=C(O)CCN(Cc2ccc(-c3cccnc3)cn2)C1=O [Ex. 1-336]
66% | Cn1cc(CN2CCC(O)=C(C(=O)NCC(=O)O)C2=O)cn1 [Ex. 1-337]
71% | O=C(O)CNC(=O)C1=C(O)CCN(Cc2cnc(C(F)(F)F)nc2)C1=O [Ex. 1-338]
40% | Cc1nc(CN2CCC(O)=C(C(=O)NCC(=O)O)C2=O)c[nH]1 [Ex. 1-339]
69% | O=C(O)CNC(=O)C1=C(O)CCN(Cc2cnc(N3CCOCC3)s2)C1=O [Ex. 1-340]
66% | Cc1csc(CN2CCC(O)=C(C(=O)NCC(=O)O)C2=O)n1 [Ex. 1-341]
57% | CN1CCN(c2ccc(CN3CCC(O)=C(C(=O)NCC(=O)O)C3=O)cc2)CC1 [Ex. 1-342]
51% | CN(C)CCCOc1ccc(CN2CCC(O)=C(C(=O)NCC(=O)O)C2=O)cc1 [Ex. 1-343]
76% | O=C(O)CNC(=O)C1=C(O)CCN(Cc2ccc(OCCO)cc2)C1=O [Ex. 1-344]
55% | CN(C)CCNC(=O)c1ccc(CN2CCC(O)=C(C(=O)NCC(=O)O)C2=O)cc1 [Ex. 1-345]
80% | O=C(O)CNC(=O)C1=C(O)CCN(Cc2ccc(OCC(=O)O)cc2)C1=O [Ex. 1-346]
55% | O=C(O)CNC(=O)C1=C(O)CCN(Cc2ccc(C(=O)NCCO)cc2)C1=O [Ex. 1-347]
76% | O=C(O)CNC(=O)C1=C(O)CCN(Cc2ccc(C(=O)NCc3ccccn3)cc2)C1=O [Ex. 1-348]
74% | O=C(O)CNC(=O)C1=C(O)CCN(Cc2ccc(C(=O)NCCc3ccccn3)cc2)C1=O [Ex. 1-349]
61% | O=C(O)CNC(=O)C1=C(O)CCN(Cc2ccc(C(=O)NCCN3CCCC3=O)cc2)C1=O [Ex. 1-350]
81% | O=C(O)CNC(=O)C1=C(O)CCN(Cc2ccc(C(=O)NCC(=O)O)cc2)C1=O [Ex. 1-351]
91% | O=C(O)CNC(=O)C1=C(O)CCN(C[C@H]2C[C@@H]2c2ccc(F)cc2)C1=O [Ex. 1-352]
96% | COc1cccc(Oc2ccc(CN3CCC(O)=C(C(=O)NCC(=O)O)C3=O)cn2)c1 [Ex. 1-354]

inhibition at 1 µM | Structure (SMILES)
96% | O=C(O)CNC(=O)C1=C(O)CCN(Cc2ccc(Oc3ccc(C(F)(F)F)cc3)cn2)C1=O [Ex. 1-356]
74% | O=C(O)CNC(=O)C1=C(O)C2(CCC2)CN(Cc2ccc(OC(F)(F)F)c(Cl)c2)C1=O [Ex. 1-357]
88% | COc1ccc(-c2ccc(CN3CC(C)(C)C(O)=C(C(=O)NCC(=O)O)C3=O)cc2)cn1 [Ex. 1-358]
69% | CC1(C)CN(Cc2ccc(OC3CC3)cc2)C(=O)C(C(=O)NCC(=O)O)=C1O [Ex. 1-359]
93% | COc1ccc(-c2ccc(CN3CC4(CCC4)C(O)=C(C(=O)NCC(=O)O)C3=O)cc2)cn1 [Ex. 1-361]
83% | CC1(C)CN(Cc2ccc(C3CC3)cc2)C(=O)C(C(=O)NCC(=O)O)=C1O [Ex. 1-362]
77% | O=C(O)CNC(=O)C1=C(O)C2(CCC2)CN(Cc2ccc(OC3CC3)cc2)C1=O [Ex. 1-363]
97% | Cc1cccc(COc2ccc(CN3CCC(O)=C(C(=O)NCC(=O)O)C3=O)cc2)c1 [Ex. 1-364]
97% | O=C(O)CNC(=O)C1=C(O)CCN(Cc2ccc(Oc3ccc(C(F)(F)F)nc3)cc2)C1=O [Ex. 1-365]
103% | Cc1ccc(Oc2ccc(CN3CCC(O)=C(C(=O)NCC(=O)O)C3=O)cn2)cc1Cl [Ex. 1-366]
105% | Cc1ccc(Oc2ccc(CN3CCC(O)=C(C(=O)NCC(=O)O)C3=O)cn2)cc1F [Ex. 1-367]
101% | Cc1cc(Oc2ccc(CN3CCC(O)=C(C(=O)NCC(=O)O)C3=O)cn2)ccc1F [Ex. 1-368]
98% | O=C(O)CNC(=O)C1=C(O)CCN(Cc2ccc(OCc3ccccc3Cl)cc2)C1=O [Ex. 1-369]
84% | CC1(COc2ccc(CN3CCC(O)=C(C(=O)NCC(=O)O)C3=O)cc2)CC1 [Ex. 1-370]
90% | O=C(O)CNC(=O)C1=C(O)CCN(CC2CC(c3ccc(F)cc3)C2)C1=O (centres unmarked) [Ex. 1-371]
89% | O=C(O)CNC(=O)C1=C(O)CCN(Cc2ccc(OCc3cccnc3)cc2)C1=O [Ex. 1-372]
85% | Cc1cccc(COc2ccc(CN3CCC(O)=C(C(=O)NCC(=O)O)C3=O)cc2)n1 [Ex. 1-373]
96% | O=C(O)CNC(=O)C1=C(O)CCN(Cc2ccc(OCc3ccccc3)c(F)c2)C1=O [Ex. 1-374]
85% | O=C(O)CNC(=O)C1=C(O)CCN(Cc2ccc(OCc3ccc(OC(F)(F)F)cc3)cc2)C1=O [Ex. 1-375]
100% | CCc1ccc(Oc2ccc(CN3CCC(O)=C(C(=O)NCC(=O)O)C3=O)cn2)cc1 [Ex. 1-376]
96% | CCCc1ccc(Oc2ccc(CN3CCC(O)=C(C(=O)NCC(=O)O)C3=O)cn2)cc1 [Ex. 1-377]
98% | CC(C)c1ccc(Oc2ccc(CN3CCC(O)=C(C(=O)NCC(=O)O)C3=O)cn2)cc1 [Ex. 1-378]
84% | Cc1cc(CN2CCC(O)=C(C(=O)NCC(=O)O)C2=O)ccc1OCC(F)(F)F [Ex. 1-379]
92% | O=C(O)CNC(=O)C1=C(O)CCN(Cc2ccc(OCc3ccccc3)nc2)C1=O [Ex. 1-380]
